Where “and” joins values, the source holds several entries; their conditions need not be identical. Equal values may be shown once. Read-outs that look alike come from different tables or passages of the source.
Tests used:
[1] = molecular target: T1, hSGLT3 (Homo sapiens, UniProt Q9NY91); test: two-electrode voltage-clamp, membrane potential of hSGLT3-expressing Xenopus oocytes; type: cell-based; conditions: for effect on the membrane potential: concentrations as high as 100 mM; for membrane depolarization: 5 mM sugar, Na+ buffer pH 7.5, single oocyte; for effect on the membrane potential (qualitative): exposure of hSGLT3 oocytes to sugar; for inhibition of glucose-induced membrane depolarization: 250 μM phlorizin
T1 construct: The complete hSGLT3 clone was created by ligation of this PCR product to the 3′-end of hSGLT3 at the HindIII site; expressed in transfected cells; host or cells: Xenopus laevis oocytes injected with hSGLT3 cRNA
T1 sequence (Q9NY91 1-659): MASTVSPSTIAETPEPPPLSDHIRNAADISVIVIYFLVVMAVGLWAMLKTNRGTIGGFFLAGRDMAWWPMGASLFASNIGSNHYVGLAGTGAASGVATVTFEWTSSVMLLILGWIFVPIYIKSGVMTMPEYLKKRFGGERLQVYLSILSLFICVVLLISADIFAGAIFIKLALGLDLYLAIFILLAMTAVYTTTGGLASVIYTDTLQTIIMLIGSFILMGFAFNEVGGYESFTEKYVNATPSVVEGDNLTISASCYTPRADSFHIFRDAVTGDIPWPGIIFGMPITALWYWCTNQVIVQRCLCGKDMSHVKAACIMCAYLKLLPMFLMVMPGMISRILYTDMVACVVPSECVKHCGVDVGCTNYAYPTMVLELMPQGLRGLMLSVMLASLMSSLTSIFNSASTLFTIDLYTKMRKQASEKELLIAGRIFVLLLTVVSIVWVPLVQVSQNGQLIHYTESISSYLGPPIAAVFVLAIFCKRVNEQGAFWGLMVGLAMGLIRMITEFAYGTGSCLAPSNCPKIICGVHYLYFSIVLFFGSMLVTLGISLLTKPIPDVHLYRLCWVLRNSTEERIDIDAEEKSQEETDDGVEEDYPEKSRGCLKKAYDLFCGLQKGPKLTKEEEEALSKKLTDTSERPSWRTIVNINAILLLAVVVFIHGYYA
Experimental: (§1) Expression of hSGLT3 in oocytes. Stage VI oocytes from Xenopus laevis (Nasco, Fort Atkinson, Wis.) were defolliculated and injected with hSGLT3 cRNA and maintained at 18° C. in modified Barth's medium containing gentamycin (5 mg/ml) and penicillin (100 units/ml)/streptomycin (100 μg/ml). Each oocyte was injected with 20 ng of cRNA. Experiments were performed at 22±1° C., 3-9 days after the injection.
(§2) Two electrode-voltage clamp. Oocytes expressing SGLTs and control oocytes were placed in the chamber, impaled with the two electrodes and continuously superfused with the required medium (Loo et al. (1998) Proc. Natl. Acad. Sci. USA 95:7789-7794). Membrane potential changes and ionic currents were measured when adding different sugar concentrations. Sugar-specific changes in current were the difference between the values measured with sugar and the preceding value in buffer alone. Na^+ buffer contained 100 mM NaCl, 2 mM KCl, 1 mM CaCl2, 1 mM MgCl2 and 10 mM HEPES/tris (pH 7.5). In Na^+-free buffer, choline Cl replaced NaCl, and for the experiments at pH 5.0 HEPES/tris was replaced with MES/tris. In some experiments at low pH we simultaneously recorded the intracellular pH of the oocyte using the fluorescent dye BCECF-AM (15, 16). The apparent affinity (K0.5) and apparent maximal current (Imax) were calculated with the equation [1]=Imax. [S]/(K0.5+[S]), using the non-linear fitting method in SigmaPlot (SPSS, Chicago, Ill.) where [S] is the sugar concentration. The results are illustrated by experiments on single oocytes, but each was representative of at least 3-8 different oocytes.
(§3) Using the techniques described above, a two-electrode voltage-clamp was used to monitor hSGLT3's electrical properties in Xenopus oocytes. The oocytes were exposed to candidate compounds, and the depolarization of membrane potential was recorded.

[2] = molecular target: T1, hSGLT3; test: simultaneous [14C]-glucose uptake and sugar-induced current in hSGLT3-expressing oocytes; type: cell-based
Experimental: as §1
(§4) Uptake experiments. Control oocytes or oocytes expressing a SGLT were superfused with a buffer solution containing either 100 mM NaCl or choline chloride at pH 7.5 or 5 while the plasma membrane potential was clamped at voltages between −50 and −110 mV. […] After the sugar was removed from the bathing solution the current returned to the baseline. The oocyte was washed, solubilized and glucose uptake determined using a scintillation spectrometer. Sugar-induced current was obtained by integrating the difference between baseline and the glucose-dependent current. The current, measured simultaneously with sugar uptake, was converted to its molar equivalent of univalent charge. [^14C]-glucose uptake in non-injected oocytes from the same batch of oocytes was used as a control.

[3] = molecular target: T1, hSGLT3; test: sugar-induced currents in hSGLT3-expressing oocytes under voltage clamp; type: cell-based
Experimental: as §1, §2

[4] = molecular target: T2, pSGLT3 (Sus scrofa, UniProt P31636); test: ratio of positive ion uptake and sugar uptake in pSGLT3-expressing oocytes; type: cell-based, pig
T2 construct: expressed in transfected cells; host or cells: Xenopus laevis oocytes expressing pig SGLT3
T2 sequence (P31636 1-660): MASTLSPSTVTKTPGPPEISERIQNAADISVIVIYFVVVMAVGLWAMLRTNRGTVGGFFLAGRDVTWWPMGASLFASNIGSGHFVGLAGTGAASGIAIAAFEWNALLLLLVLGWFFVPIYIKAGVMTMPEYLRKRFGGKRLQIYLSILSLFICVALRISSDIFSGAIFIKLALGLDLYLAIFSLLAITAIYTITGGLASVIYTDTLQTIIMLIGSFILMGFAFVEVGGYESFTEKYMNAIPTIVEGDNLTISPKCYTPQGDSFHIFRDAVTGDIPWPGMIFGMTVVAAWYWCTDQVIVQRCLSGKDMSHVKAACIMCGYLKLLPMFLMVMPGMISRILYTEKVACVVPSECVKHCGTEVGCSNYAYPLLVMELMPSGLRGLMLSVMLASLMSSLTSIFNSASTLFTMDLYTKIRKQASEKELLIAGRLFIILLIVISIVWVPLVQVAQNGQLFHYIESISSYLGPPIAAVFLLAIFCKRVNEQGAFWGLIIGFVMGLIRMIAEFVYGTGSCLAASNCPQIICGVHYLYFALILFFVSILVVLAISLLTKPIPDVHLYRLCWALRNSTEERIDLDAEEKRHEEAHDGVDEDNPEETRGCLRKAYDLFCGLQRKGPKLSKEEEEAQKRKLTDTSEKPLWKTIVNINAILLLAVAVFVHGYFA
Experimental: as §4

[5] = molecular target: T3, SGLT1 (Homo sapiens, UniProt P13866); set-up: host or cells: Xenopus laevis oocytes expressing hSGLT1; conditions: cited from earlier work
T3 sequence (P13866 1-664): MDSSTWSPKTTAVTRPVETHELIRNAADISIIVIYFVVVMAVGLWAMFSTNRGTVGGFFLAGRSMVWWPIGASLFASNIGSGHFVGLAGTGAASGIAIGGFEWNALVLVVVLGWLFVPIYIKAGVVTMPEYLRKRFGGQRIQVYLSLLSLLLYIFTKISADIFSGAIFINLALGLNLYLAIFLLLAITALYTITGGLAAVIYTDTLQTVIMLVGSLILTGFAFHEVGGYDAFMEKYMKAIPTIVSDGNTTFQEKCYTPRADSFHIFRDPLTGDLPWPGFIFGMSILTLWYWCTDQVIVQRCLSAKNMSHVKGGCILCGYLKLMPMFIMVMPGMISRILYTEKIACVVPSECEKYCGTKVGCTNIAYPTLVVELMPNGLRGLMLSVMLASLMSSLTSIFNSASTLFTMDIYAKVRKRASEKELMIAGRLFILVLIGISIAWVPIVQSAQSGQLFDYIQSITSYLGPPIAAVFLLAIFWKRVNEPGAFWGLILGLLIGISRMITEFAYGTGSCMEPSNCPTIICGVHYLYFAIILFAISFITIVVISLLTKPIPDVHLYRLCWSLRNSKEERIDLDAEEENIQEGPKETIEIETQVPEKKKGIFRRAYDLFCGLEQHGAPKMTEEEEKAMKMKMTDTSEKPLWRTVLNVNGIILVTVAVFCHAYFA

[6] = molecular target: T3, SGLT1; test: response of cells expressing SGLT1 to amino sugars; type: cell-based; set-up: expressed in transfected cells; host or cells: cells expressing SGLT1; Xenopus oocytes are inferred from 'Using the techniques described above'; conditions: 30 mM
Experimental: as §2, with “The results are illustrated by experiments on single oocytes, but each was representative of at least 3-8 different oocytes.” left out
as §3

[7] = test system: control cells; test: response of control cells to amino sugars; type: cell-based, Xenopus laevis; conditions: 30 mM
Experimental: as §2, with “The results are illustrated by experiments on single oocytes, but each was representative of at least 3-8 different oocytes.” left out
as §3

[8] = test system: glucose-responsive neurons in the hypothalamus; conditions: cited from earlier work
[9] = injected into the cerebrospinal fluid; cited from earlier work
[10] = test system: guinea pig ileum; test: mechanical activity of guinea pig ileum
[11] = test system: neuroendocrine cells; conditions: Na+-dependent and phlorizin-sensitive manner; cited from earlier work
[12] = 2 mM glucose, -70 mV, Na+ buffer pH 5

Question: Which “effect on the membrane potential” value [1] does the source give for `O=C[C@H](O)C[C@H](O)[C@H](O)CO` [3-deoxy-D-glucose] here?
Answer: failed to affect the membrane potential

Question: For `O=C(CO)[C@@H](O)[C@H](O)[C@H](O)CO` [D-fructose], which “effect on the membrane potential” value [1] is on record?
Answer: no effect

Question: Which membrane depolarization [1] does the source give for `O=C[C@H](O)[C@@H](O)[C@@H](O)[C@H](O)CO` [D-galactose] here?
Answer: no effect

Question: And the “effect on the membrane potential” value [1]?
Answer: no effect

Question: Which results are given for `O=C[C@H](O)[C@@H](O)[C@H](O)[C@H](O)CO` [D-glucose]?
Answer: depolarization of the membrane potential by phlorizin sensitive inward current [1]: up to 50 mV; membrane depolarization [1]: about 4 mV; ΔVmax ([1]; 6 experiments): 26±9 mV; EC50 ([1]; K0.5 (apparent affinity) of depolarization, 6 experiments, pH 7.5): 60 mM and ~60 mM; effect on the membrane potential (qualitative) [1]: reversibly depolarized the membrane potential; maximal depolarization (ΔVm) ([1]; fit of a single oocyte (FIG. 4B)): 23 mV; cation uptake in hSGLT3 oocytes ([2]; 2 mM D-glucose, 5 minutes, Na+ pH 5, n=5): 81 ± 7 pmol; D-glucose uptake in hSGLT3 oocytes ([2]; 2 mM D-glucose, 5 minutes, Na+ pH 5, n=5, control oocytes 11±0.6): 11 ± 0.5 pmol; glucose uptake in hSGLT3 oocytes compared with control oocytes [2, 12]: identical to that in control oocytes; sugar dependent current equivalent to univalent positive charge [2, 12]: 81±7 pmol per 5 minutes; activation energy (Ea) of glucose-induced current ([3]; pH 5, presence and absence of Na+, 10, 22 and 28° C., Arrhenius plots): ~9 kcal/mol; ratio positive charge / sugar uptake ([4]; acidic pH, n=6): 4.7±0.2; ratio positive charge / sugar uptake ([4]; neutral pH, n=12): 2.1±0.1; ratio positive ion uptake / sugar uptake ([5]; Na+ at neutral pH, n=4): 2.1±0.04; ratio positive ion uptake / sugar uptake ([5]; acidic pH in H+, n=7): 2±0.1

Question: For `OC[C@H]1NC[C@H](O)[C@@H](O)[C@@H]1O` [Deoxynojirimycin], which “effects on cells expressing SGLT1” value [6] is on record?
Answer: no effects

Question: And the EC50 ([1]; range printed with mixed units (nanomolar to micromolar), read-out: affinities to activate SGLT2)?
Answer: 0.0005 to 0.002 mM

Question: What about the “effects on control cells” value [7] of the same compound?
Answer: no effects

Question: Which results are given for `CCN1C[C@H](O)[C@@H](O)[C@H](O)[C@H]1CO` [N-(n-ethyl)deoxynojirimycin]?
Answer: effects on cells expressing SGLT1 [6]: no effects; effects on control cells [7]: no effects

Question: Which “effect on the membrane potential” value [1] does the source give for `OC[C@@H](O)[C@@H](O)[C@H](O)[C@H](O)CO` [mannitol] here?
Answer: no effect

Question: Which “glucose mediated increase in firing rate” value [8] does the source give for `O=C(CCc1ccc(O)cc1)c1c(O)cc(O)cc1O[C@@H]1O[C@H](CO)[C@@H](O)[C@H](O)[C@H]1O` [phlorizin] here?
Answer: blocks

Question: What about the “block of the responses to the amino sugars” value [1] of the same compound?
Answer: blocked

Question: What about the “inhibition of glucose-induced membrane depolarization” value [1] of the same compound?
Answer: blocked

Question: What about the “inhibition of glucose-induced membrane depolarization” value ([1]; listed as Phlorizin) of the same compound?
Answer: inhibited the membrane depolarization

Question: What about the food intake [9] of the same compound?
Answer: increases food intake

Question: What about the “block of the effect of glucose on mechanical activity of guinea pig ileum” value [10] of the same compound?
Answer: blocked

Question: With `CO[C@H]1O[C@H](CO)[C@@H](O)[C@H](O)[C@H]1O` [αMDG, α-methyl-D-glucopyranoside] as the compound, how does the membrane depolarization [1] read?
Answer: about 4 mV

Question: And the “effect on the membrane potential (qualitative)” value [1]?
Answer: reversibly depolarized the membrane potential

Question: What about the GLP-1 peptide secretion [11] of the same compound?
Answer: stimulates GLP-1 peptide secretion

Question: And the “maximum current at saturating sugar concentration (Imax)” value ([3]; -150 mV, Na+ buffer, n=5)?
Answer: 122±20 nA

Question: And the EC50 ([3]; -150 mV, Na+ buffer, n=5, read-out: apparent sugar affinity (K0.5) of current)?
Answer: 36 ± 6 mM

Question: What about the Imax ([3]; pH 5 in Choline Cl, four oocytes) of the same compound?
Answer: 2385±651 nA

Question: And the Imax ([3]; pH 5 in NaCl, four oocytes)?
Answer: 1725±99 nA

Question: And the EC50 ([3]; pH 5 in NaCl, four oocytes, read-out: K0.5)?
Answer: 41 ± 7 mM

Reference: patent publication US7238708B2, “Glucose sensor” (The Regents of the University of California, priority 2004, dated 2007)
